Source: patent US11534434B2 (Karuna Therapeutics, Inc., priority 2019, dated 2022)

Columns and labels:
human M2 mAChR = biological target: T1, human M2 mAChR (Homo sapiens, UniProt P08172); experiment: Whole-cell functional agonist activity, phospho-ERK (pERK), CHOK1-based human M2 mAChR stable cell line; details: for EC50: agonist, CHOK1 human M2 cells; for M2 Top (%): top of curve, % of min (DMSO) and max (10 mM Acetylcholine) responses
T1 construct: expressed in transfected cells
T1 sequence (P08172 1-466): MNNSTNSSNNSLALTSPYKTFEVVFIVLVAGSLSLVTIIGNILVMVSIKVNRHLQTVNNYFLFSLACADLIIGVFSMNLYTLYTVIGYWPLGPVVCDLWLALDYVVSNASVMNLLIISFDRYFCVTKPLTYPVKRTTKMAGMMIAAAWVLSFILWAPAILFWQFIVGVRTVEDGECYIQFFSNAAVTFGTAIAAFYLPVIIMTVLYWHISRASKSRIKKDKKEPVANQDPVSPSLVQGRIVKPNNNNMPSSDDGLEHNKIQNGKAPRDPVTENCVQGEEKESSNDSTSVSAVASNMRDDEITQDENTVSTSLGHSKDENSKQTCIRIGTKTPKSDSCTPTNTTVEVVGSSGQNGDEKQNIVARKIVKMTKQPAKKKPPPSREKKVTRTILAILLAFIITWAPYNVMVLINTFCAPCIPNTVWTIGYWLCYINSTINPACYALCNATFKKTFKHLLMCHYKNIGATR
Procedure: (§1) Whole-cell functional agonist activity in cells expressing recombinant human muscarinic receptor subtypes.
(§2) ThermoFisher's FLIPR™ (Fluorescence Imaging Plate Reader) was used to quantify Ca^2+ release, a functional effect associated with Gaq-coupled M1 and M5 mAChRs. CisBio's phospho-ERK (pERK) Thr202/Tyr204 was used to evaluate Gai/o-coupled M2 and M4 mAChRs responses.
(§3) Percentage activity was calculated using the following formula: % Activity=100%×(mean RFU of test sample mean RFU of vehicle control)/(mean MAX RFU control ligand mean RFU of vehicle control) where RFU is relative fluorescence unit. The M2 and the M4 cells were thawed out one day before the assay and plated at 2,000 and 1,000 cells per well, respectively, in […] of DMEM/F12+10% FBS in ProxiPlate 384-well white-walled, white-bottom tissue culture-treated plates and incubated at 37° C. and 5% CO2 overnight. Before the assay, cells were serum-starved at 37° C. in 5% CO2 for 4 hours by replacing culture media with […] of F12 media with 8 mM HEPES. The pERK assay was run according to assay kit instructions with minor volume modifications outlined below.
(§4) Compound addition was carried out by adding 3× compound solution in […] of media with 0.3% DMSO (made from a 10 mM compound stock solution in 100% DMSO) for 5 minutes before the reaction was terminated by adding […] lysis and blocking solution. Cells were left in the lysis solution for 30 minutes before […] of antibody (Eu and d2) solution was added for an additional 2-hour incubation while protected from light. The plates were then read on laser Pherastar using the TR-FRET protocol.

human M4 mAChR = biological target: T2, human M4 mAChR (Homo sapiens, UniProt P08173); experiment: Whole-cell functional agonist activity, phospho-ERK (pERK), CHOK1-based human M4 mAChR stable cell line; details: for EC50: agonist, CHOK1 human M4 cells; for M4 Top (%): top of curve, % of min (DMSO) and max (10 mM Acetylcholine) responses
T2 construct: expressed in transfected cells
T2 sequence (P08173 1-479): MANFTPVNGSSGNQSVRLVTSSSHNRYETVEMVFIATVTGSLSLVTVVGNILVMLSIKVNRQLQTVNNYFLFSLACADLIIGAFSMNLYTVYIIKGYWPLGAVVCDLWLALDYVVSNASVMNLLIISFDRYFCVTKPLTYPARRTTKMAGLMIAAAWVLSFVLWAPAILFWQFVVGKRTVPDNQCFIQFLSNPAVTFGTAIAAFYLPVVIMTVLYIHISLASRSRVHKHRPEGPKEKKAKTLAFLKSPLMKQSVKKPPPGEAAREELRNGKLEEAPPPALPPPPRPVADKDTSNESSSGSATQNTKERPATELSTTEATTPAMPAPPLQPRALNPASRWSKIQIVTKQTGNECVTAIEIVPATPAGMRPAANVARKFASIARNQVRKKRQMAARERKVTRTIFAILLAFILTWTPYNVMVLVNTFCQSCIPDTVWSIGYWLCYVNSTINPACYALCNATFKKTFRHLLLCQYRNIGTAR
Procedure: as §1, §2, §3, §4

human M5 mAChR = biological target: T3, human M5 mAChR (Homo sapiens, UniProt P08912); experiment: Whole-cell functional agonist activity, FLIPR Ca2+ release, CHOK1-based human M5 mAChR stable cell line; details: for EC50: agonist, FLIPR Ca2+ release, CHOK1 human M5 cells; for Emax: top of curve, % activity vs MAX control ligand, FLIPR Ca2+
T3 construct: expressed in transfected cells
T3 sequence (P08912 1-532): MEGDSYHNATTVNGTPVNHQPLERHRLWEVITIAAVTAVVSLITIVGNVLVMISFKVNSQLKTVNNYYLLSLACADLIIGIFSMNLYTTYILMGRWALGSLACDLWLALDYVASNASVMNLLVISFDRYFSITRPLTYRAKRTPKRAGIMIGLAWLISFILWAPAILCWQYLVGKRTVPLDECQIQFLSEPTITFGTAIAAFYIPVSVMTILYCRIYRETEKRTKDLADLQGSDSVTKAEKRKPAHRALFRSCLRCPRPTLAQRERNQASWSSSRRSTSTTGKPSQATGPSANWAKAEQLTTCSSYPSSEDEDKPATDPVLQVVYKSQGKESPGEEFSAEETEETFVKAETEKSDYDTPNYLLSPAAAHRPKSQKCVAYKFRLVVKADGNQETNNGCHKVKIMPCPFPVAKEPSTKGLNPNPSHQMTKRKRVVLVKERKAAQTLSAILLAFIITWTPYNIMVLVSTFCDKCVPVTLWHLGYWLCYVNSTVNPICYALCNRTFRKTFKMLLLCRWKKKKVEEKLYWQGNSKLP
Excerpt: as §1, §2
One day before the assay, M1, M3, and M5 cells were thawed out and plated at 10,000 cells/well into black-walled, clear-bottom, Poly-D-lysine coated 384-well microplates and incubated at 37° C. and 5% CO2 in MEME+10% FBS+1× penicillin/streptomycin/glutamine, for the M1 and M3 cell lines and F-12+10% FBS+1× penicillin/streptomycin/glutamine for the M5 cell line. […] The M1 and M5 responses were analyzed using the CBIS data analysis suite (ChemInnovation, CA).
as §3

SMILES | EC50 (human M2 mAChR) | M2 Top (%) (human M2 mAChR) | EC50 (human M4 mAChR) | M4 Top (%) (human M4 mAChR) | EC50 (human M5 mAChR) | Emax (human M5 mAChR)
CCC(F)(F)CCCOc1nsnc1C1=CCCN(C)C1 [Example 9, 3-((4,4-Difluorohexyl)oxy)-4-(1-methyl-1,2,5,6-tetrahydropyridin-3-yl)-1,2,5-thiadiazole] | > 34 nM | 1% | > 34 nM | 5% | 140 nM | 40%
CCCCC(F)(F)COc1nsnc1C1=CCCN(C)C1 [Example 11, 3-((2,2-Difluorohexyl)oxy)-4-(1-methyl-1,2,5,6-tetrahydropyridin-3-yl)-1,2,5-thiadiazole] | > 34 nM | 0% | 374 nM | 62% | 2290 nM | 45%
CN1CCC=C(c2nsnc2OCCCCC(C)(F)F)C1 [Example 8, 3-((5,5-Difluorohexyl)oxy)-4-(1-methyl-1,2,5,6-tetrahydropyridin-3-yl)-1,2,5-thiadiazole] | > 34 nM | 0% | 12.6 nM | 48% | 27.2 nM | 85%
CN1CCC=C(c2nsnc2OCCCCCC(F)F)C1 [Example 6, 3-((6,6-difluorohexyl)oxy)-4-(1-methyl-1,2,5,6-tetrahydropyridin-3-yl)-1,2,5-thiadiazole] | > 34 nM | 2% | 11 nM | 108% | 14.7 nM | 95%
CN1CCC=C(c2nsnc2OCCCCCCF)C1 [Example 7, 3-((6-Fluorohexyl)oxy)-4-(1-methyl-1,2,5,6-tetrahydropyridin-3-yl)-1,2,5-thiadiazole] | > 34 nM | 3% | 8.3 nM | 112% | 13.2 nM | 90%
CN1CCC=C(c2nsnc2OCCCCCC(F)(F)F)C1 [Example 1, 3-(1-Methyl-1,2,5,6-tetrahydropyridin-3-yl)-4-((6,6,6-trifluorohexyl)oxy)-1,2,5-thiadiazole] | > 34 nM | 1% | 15.7 nM | 82% | 22.4 nM | 85%
